# Entries after “also recorded” stand apart in the source; their conditions may differ.
# Columns and labels:
# [1] = test system: normal cord blood CD34+ cells engrafted in Rag2−/−γc−/− mice; assay: Normal HSPC in vivo model (cord blood CD34+ cell engrafted mice); set-up: species or system mouse; details: 10 mg/kg versus vehicle
# Method: All animal studies were performed in accordance with UCSD and NIH-equivalent ethical guidelines and were approved by the Institutional Animal Care and Use Committee (IACUC protocol # S06015). For all in vivo experiments, animals of both genders were utilized. […] At 7-28 weeks post-transplant (7-36 weeks old), mice were euthanized, and peripheral blood and single cell suspensions of hematopoietic organs were analyzed for human cell engraftment by FACS. […] Treatment was initiated at 8 weeks post-transplant, and at 10 weeks post-transplant, mice were euthanized, and peripheral blood and single cell suspensions of hematopoietic organs were analyzed for human cell engraftment by FACS. […]
# Flow cytometric analysis was performed on single cell suspensions from each hematopoietic tissue essentially as for primary patient samples, and frequencies of total live human CD45+ cells, CD45+ CD34+ CD38− Lin− (stem) cells, CD45+ CD34+ CD38+ Lin− (progenitor) cells, and CD45+/CD33+ (leukemic blasts) were determined in each tissue. […]
# [2] = test system: CD34+ cells from normal cord blood; assay: SL/M2 stromal co-culture with colony and replating assays, cord blood; type: cell-based, human; details: even at high doses
# Method: In hypothesis-driven experiments, the splicing modulatory compound 17S-FD-895 was tested to determine efficacy in altering splicing activity in cell lines, and to evaluate effects on AML LSC survival and self-renewal capacity in humanized bone marrow stromal co-cultures and in PRIMAGRAFT™ AML LSC models. Cell culture experiments were performed using 293T and sAML (MOLM-13) cell lines, and SL and M2 bone marrow stromal cell lines. Animal studies were performed using immunocompromised Rag2−/−γc−/−[20] or NOD/SCID-IL2RG mice (Jackson Laboratory, Bar Harbor, Me.). Primary AML and normal control samples were used in in vitro hematopoietic stem and progenitor assays after bone marrow stromal co-culture and treatment with splicing modulatory compounds (FD-895 or 17S-FD-895) or vehicle control (DMSO). Colony formation potential and self-renewal capacity were assessed by counting colony numbers (survival) after two weeks of growth in semi-solid (methylcellulose) media, and subsequent replating capacity (self-renewal) was assessed after transfer to fresh methylcellulose for an additional two weeks of culture. […]
# [3] = test system: CD34+ cells from normal aged bone marrow; assay: SL/M2 stromal co-culture with colony and replating assays, normal bone marrow; type: cell-based, human; details: normal aged bone marrow samples
# Method: In hypothesis-driven experiments, the splicing modulatory compound 17S-FD-895 was tested to determine efficacy in altering splicing activity in cell lines, and to evaluate effects on AML LSC survival and self-renewal capacity in humanized bone marrow stromal co-cultures and in PRIMAGRAFT™ AML LSC models. Cell culture experiments were performed using 293T and sAML (MOLM-13) cell lines, and SL and M2 bone marrow stromal cell lines. Animal studies were performed using immunocompromised Rag2−/−γc−/−[20] or NOD/SCID-IL2RG mice (Jackson Laboratory, Bar Harbor, Me.). Primary AML and normal control samples were used in in vitro hematopoietic stem and progenitor assays after bone marrow stromal co-culture and treatment with splicing modulatory compounds (FD-895 or 17S-FD-895) or vehicle control (DMSO). Colony formation potential and self-renewal capacity were assessed by counting colony numbers (survival) after two weeks of growth in semi-solid (methylcellulose) media, and subsequent replating capacity (self-renewal) was assessed after transfer to fresh methylcellulose for an additional two weeks of culture. Three primary AML samples were utilized to establish PRIMAGRAFT™ models in immunocompromised mice, and mice engrafted with cells from two of these models (AML-37 and AML-08) were treated with 17S-FD-895 or vehicle (DMSO) to evaluate changes in AML LSC survival and self-renewal capacity in vivo. Data were collected by flow cytometry and qRT-PCR analysis of CD34-selected human LSC-enriched cells from engrafted mice.
# Bone marrow SL/M2 monolayers were established from freshly inactivated (irradiated) cells and then human CD34^+ cells selected from AML primary samples (n=8) and normal controls (CD34^+ cells from cord blood, CB, n=6; or aged bone marrow, n=6) were added. Survival and self-renewal of the CD34+ cells were investigated by methylcellulose-based colony and replating assays. Two SF3B1-targeted splicing modulators, FD-895 or 17S-FD-895, were added at the initiation of co-culture at concentrations ranging from 0.1 to 10 μM.
# As previously described (Goff et al., 2013), humanized bone marrow SL/M2 monolayers were inactivated (irradiated) and then human CD34^+ cells selected from AML primary samples and normal controls were added for two weeks of co-culture, followed by methylcellulose-based colony and replating assays. FD-895 or 17S-FD-895 were added at the initiation of co-culture, with DMSO as a vehicle control.
structure (smiles),measurement,setting,value
"CC[C@H](OC)[C@@H](C)[C@H]1O[C@@H]1[C@@H](O)[C@H](C)/C=C/C=C(\C)[C@H]1OC(=O)C[C@H](O)CC[C@@](C)(O)[C@@H](OC(C)=O)/C=C/[C@@H]1C (stereo in doubt) [Formula 17S-FD-895, 17S-FD-895]",total human hematopoietic cell or HSPC survival,[1],no effect
same,"normal CB samples, survival and self-renewal",[2],unaffected
same,erythroid colony formation and self-renewal,[3],not significantly changed; also recorded: no effect on erythroid colonies
same,granulocyte-macrophage (myeloid) colony survival,[3],slight decrease; also recorded: reduces myeloid colony formation
